# According to ChEMBL document CHEMBL5108009, “Positron Emission Tomography (PET) Imaging Tracers for Serotonin Receptors” (J Med Chem, 2022):
# pKd, pKi: −log10 of the molar value.
# Experiments:
# [1] = Drug uptake in Cynomolgus monkey striatum at 4 mCi, iv measured upto 90 mins by PET imaging; type: ADME, organism-based, Macaca fascicularis; settings: in vivo, 1.5 h
# [2] = Drug uptake in cat striatum at 2.5 mCi, iv measured upto 90 mins by PET imaging; type: ADME, organism-based, Felis catus; settings: in vivo, 1.5 h
# [3] = target: Sigma intracellular receptor 2 (Homo sapiens, UniProt Q5BJF2); experiment: Binding affinity to sigma 2 receptor (unknown origin) assessed as inhibition constant
# Chain of Sigma intracellular receptor 2 (Q5BJF2 whole entry): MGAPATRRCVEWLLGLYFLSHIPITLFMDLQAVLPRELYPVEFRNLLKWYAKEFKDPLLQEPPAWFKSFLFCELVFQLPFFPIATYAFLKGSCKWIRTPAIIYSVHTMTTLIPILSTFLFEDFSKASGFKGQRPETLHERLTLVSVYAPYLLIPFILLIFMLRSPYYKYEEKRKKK
# [4] = target: T1, 5-hydroxytryptamine receptor 7 (Homo sapiens, UniProt P34969); experiment: Binding affinity to 5-HT7 receptor (unknown origin) assessed as inhibition constant
# T1 sequence (P34969 whole entry): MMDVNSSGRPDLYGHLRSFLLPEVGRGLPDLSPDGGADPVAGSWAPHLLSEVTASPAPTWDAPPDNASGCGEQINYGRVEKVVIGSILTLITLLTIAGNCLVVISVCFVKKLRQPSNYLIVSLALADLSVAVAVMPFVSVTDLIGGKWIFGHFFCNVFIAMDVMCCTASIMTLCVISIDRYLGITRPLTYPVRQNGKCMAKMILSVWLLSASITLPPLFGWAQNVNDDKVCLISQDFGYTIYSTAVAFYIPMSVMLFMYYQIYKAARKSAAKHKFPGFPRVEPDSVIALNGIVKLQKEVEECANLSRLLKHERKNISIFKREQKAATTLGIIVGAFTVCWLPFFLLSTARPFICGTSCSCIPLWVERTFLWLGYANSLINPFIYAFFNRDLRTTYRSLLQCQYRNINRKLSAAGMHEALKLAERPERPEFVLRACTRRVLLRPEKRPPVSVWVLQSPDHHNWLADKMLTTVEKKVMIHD
# [5] = target: Sigma non-opioid intracellular receptor 1 (Homo sapiens, UniProt Q99720); experiment: Binding affinity to sigma 1 receptor (unknown origin) assessed as inhibition constant
# Chain of Sigma non-opioid intracellular receptor 1 (Q99720 whole entry): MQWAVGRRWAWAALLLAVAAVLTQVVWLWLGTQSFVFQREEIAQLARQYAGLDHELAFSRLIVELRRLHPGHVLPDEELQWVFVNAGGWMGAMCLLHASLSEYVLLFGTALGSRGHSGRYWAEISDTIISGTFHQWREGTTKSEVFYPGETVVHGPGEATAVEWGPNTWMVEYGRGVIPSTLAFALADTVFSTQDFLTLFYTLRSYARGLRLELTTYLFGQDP
# [6] = Ratio of drug uptake in rat cortex to cerebellum at steady state; type: ADME, tissue-based; settings: in vivo
# [7] = Drug uptake in human frontal cortex assessed as non-displaceable binding potential; type: ADME, tissue-based
# [8] = target: 5-hydroxytryptamine receptor 1D (Homo sapiens, UniProt P28221); experiment: Binding affinity to 5-HT1D (unknown origin) assessed as inhibition constant
# Chain of 5-hydroxytryptamine receptor 1D (P28221 whole entry): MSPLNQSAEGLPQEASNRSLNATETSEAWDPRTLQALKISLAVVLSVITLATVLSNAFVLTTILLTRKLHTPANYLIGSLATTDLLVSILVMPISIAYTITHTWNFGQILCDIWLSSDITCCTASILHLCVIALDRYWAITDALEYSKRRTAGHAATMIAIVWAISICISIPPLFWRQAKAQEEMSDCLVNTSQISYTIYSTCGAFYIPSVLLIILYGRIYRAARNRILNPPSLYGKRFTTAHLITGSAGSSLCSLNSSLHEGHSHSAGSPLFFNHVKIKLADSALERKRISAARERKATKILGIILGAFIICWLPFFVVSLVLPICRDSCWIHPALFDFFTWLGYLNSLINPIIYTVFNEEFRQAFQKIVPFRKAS
# [9] = target: T2, 5-hydroxytryptamine receptor 1A (Homo sapiens, UniProt P08908)
# T2 sequence (P08908 whole entry): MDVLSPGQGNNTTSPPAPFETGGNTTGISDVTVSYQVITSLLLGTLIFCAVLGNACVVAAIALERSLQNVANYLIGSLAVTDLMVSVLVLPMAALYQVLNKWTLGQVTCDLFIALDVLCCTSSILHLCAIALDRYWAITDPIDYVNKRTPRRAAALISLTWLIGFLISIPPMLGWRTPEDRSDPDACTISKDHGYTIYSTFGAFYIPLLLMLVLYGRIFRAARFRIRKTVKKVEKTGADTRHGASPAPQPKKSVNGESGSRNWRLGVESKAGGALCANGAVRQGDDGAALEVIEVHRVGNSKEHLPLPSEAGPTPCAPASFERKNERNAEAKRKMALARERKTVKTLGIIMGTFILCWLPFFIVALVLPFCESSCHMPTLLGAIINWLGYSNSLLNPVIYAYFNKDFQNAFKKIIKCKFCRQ
# [10] = target: 5-hydroxytryptamine receptor 1F (Homo sapiens, UniProt P30939); experiment: Binding affinity to human 5-HT1F assessed as inhibition constant incubated for 10 mins by radioligand binding assay
# Chain of 5-hydroxytryptamine receptor 1F (P30939 whole entry): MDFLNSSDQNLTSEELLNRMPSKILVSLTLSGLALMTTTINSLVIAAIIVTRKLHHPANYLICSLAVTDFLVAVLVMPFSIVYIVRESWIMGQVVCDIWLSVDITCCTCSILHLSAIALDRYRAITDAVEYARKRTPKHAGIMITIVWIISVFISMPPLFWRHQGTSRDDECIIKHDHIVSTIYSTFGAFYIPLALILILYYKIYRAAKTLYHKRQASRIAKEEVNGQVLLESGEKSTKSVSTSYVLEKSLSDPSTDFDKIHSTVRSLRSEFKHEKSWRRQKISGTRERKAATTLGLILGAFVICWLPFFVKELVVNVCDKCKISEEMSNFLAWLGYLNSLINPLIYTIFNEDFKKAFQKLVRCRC
# [11] = target: 5-hydroxytryptamine receptor 2B (Homo sapiens, UniProt P41595)
# Chain of 5-hydroxytryptamine receptor 2B (P41595 whole entry): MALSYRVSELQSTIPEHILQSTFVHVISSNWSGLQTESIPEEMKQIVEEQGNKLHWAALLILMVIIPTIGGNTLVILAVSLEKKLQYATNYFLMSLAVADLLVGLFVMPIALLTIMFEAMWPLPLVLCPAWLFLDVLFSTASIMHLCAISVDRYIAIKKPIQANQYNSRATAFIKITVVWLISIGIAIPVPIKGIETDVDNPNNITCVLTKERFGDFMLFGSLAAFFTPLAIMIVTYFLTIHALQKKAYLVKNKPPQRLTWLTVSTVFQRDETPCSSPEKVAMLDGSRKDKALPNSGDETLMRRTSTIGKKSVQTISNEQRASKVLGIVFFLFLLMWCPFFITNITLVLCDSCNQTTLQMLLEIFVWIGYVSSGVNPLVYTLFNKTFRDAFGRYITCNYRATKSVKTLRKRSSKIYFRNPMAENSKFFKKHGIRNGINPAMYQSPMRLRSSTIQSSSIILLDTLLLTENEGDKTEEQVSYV
# [12] = target: T3, 5-hydroxytryptamine receptor 2C (Homo sapiens, UniProt P28335)
# T3 sequence (P28335 whole entry): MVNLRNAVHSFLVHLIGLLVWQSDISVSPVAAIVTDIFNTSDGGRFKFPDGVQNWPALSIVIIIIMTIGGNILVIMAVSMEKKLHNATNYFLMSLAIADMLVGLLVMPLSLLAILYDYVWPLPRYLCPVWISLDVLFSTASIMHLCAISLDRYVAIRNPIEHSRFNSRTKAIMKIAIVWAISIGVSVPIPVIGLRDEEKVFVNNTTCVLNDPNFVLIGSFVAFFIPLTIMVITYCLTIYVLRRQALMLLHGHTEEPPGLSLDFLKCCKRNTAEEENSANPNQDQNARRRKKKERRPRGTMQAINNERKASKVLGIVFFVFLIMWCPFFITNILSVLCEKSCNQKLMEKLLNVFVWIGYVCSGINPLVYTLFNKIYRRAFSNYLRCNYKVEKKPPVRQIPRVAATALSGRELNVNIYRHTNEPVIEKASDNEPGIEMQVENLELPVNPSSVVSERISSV
# [13] = target: T1, 5-hydroxytryptamine receptor 7
# [14] = target: 5-hydroxytryptamine receptor 1B (Homo sapiens, UniProt P28222)
# Chain of 5-hydroxytryptamine receptor 1B (P28222 whole entry): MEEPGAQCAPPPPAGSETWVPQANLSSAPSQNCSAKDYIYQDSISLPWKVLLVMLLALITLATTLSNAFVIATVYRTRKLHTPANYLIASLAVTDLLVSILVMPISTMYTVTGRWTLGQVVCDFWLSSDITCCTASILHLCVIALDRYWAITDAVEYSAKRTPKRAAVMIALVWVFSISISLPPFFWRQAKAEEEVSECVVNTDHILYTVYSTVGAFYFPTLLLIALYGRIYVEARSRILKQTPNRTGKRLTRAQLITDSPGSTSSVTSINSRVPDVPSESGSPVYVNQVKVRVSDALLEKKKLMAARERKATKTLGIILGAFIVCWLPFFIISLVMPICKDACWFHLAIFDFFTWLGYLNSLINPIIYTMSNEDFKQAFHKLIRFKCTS
# [15] = target: 5-hydroxytryptamine receptor 5A (Homo sapiens, UniProt P47898); experiment: Binding affinity to 5-HT5A receptor (unknown origin) assessed as inhibition constant
# Chain of 5-hydroxytryptamine receptor 5A (P47898 whole entry): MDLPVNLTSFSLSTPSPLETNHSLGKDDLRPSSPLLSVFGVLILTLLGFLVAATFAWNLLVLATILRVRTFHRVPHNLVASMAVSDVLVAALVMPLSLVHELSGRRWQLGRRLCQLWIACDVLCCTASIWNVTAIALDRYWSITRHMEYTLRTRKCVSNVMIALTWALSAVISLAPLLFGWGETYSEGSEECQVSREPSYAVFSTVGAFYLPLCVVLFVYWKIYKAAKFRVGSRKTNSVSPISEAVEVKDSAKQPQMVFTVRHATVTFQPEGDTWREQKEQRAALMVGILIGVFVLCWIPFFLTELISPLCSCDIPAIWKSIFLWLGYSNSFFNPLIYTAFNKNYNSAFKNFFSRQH
# [16] = target: 5-hydroxytryptamine receptor 6 (Homo sapiens, UniProt P50406); experiment: Binding affinity to 5-HT6 receptor (unknown origin) assessed as inhibition constant
# Chain of 5-hydroxytryptamine receptor 6 (P50406 whole entry): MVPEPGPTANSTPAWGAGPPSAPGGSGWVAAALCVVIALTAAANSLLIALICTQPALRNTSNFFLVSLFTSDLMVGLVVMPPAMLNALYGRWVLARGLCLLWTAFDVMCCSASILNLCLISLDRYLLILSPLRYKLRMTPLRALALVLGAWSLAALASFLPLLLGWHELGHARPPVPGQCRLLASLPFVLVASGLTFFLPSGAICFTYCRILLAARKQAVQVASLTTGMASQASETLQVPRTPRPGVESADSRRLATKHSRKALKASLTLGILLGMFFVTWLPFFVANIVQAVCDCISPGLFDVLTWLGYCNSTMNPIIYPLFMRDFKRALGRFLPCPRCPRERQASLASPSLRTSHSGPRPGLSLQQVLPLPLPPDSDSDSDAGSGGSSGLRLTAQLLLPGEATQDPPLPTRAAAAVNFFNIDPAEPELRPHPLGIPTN
# [17] = Drug uptake in rat brain frontal cortex relative to control; type: ADME, tissue-based; settings: in vivo
# [18] = target: T4, 5-hydroxytryptamine receptor 2A (Rattus norvegicus, UniProt P14842); experiment: Displacement of [3H]-Ketanserin from rat cortical membrane 5-HT2A receptor; type: cell membranes, Cortex
# T4 sequence (P14842 whole entry): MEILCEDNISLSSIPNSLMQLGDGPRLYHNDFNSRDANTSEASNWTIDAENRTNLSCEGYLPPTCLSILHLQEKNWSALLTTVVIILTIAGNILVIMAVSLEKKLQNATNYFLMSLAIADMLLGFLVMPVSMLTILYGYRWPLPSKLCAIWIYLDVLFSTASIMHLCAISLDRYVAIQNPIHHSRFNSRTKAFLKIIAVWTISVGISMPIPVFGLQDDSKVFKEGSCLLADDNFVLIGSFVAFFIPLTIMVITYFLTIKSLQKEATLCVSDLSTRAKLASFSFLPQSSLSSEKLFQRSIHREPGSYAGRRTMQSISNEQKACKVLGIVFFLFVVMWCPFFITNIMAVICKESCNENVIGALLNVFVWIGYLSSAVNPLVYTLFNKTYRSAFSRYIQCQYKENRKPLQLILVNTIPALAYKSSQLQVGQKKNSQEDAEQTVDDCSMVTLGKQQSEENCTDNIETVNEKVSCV
# D(2) dopamine receptor = D(2) dopamine receptor (Rattus norvegicus, UniProt P61169); experiment: Displacement of [3H]-spiperone from rat striatal membrane D2 receptor; type: cell membranes, Striatum
# Chain of D(2) dopamine receptor (P61169 whole entry): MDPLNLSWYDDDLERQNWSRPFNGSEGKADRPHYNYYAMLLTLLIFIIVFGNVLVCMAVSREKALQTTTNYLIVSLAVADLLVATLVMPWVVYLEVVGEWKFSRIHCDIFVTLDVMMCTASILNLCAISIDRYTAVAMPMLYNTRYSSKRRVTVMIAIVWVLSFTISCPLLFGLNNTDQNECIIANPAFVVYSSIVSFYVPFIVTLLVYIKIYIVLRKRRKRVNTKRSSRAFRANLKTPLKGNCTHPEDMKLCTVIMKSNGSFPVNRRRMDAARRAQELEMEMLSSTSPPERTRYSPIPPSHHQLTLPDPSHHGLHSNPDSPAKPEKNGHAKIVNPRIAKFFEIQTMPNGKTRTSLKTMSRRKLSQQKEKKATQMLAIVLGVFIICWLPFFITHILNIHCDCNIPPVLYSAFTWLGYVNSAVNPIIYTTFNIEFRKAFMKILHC
# [19] = target: T5, Alpha-1A adrenergic receptor (Rattus norvegicus, UniProt P43140); experiment: Displacement of [3H]prazosin from rat whole brain alpha1 adrenergic receptor; type: tissue-based
# T5 sequence (P43140 whole entry): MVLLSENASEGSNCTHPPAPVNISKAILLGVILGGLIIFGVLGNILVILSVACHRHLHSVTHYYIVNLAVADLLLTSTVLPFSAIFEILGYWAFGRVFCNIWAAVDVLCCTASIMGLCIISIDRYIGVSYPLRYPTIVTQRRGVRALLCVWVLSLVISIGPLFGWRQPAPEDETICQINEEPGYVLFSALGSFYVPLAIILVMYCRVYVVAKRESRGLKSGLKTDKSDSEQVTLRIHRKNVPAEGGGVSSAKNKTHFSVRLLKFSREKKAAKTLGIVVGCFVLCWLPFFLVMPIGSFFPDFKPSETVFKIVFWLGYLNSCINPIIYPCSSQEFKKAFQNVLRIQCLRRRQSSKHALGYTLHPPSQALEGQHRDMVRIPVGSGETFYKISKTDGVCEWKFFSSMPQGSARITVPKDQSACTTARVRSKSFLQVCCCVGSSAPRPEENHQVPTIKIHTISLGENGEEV
# [20] = target: 5-hydroxytryptamine receptor 7 (Rattus norvegicus, UniProt P32305); experiment: Binding affinity to rat brain 5-HT7 receptor assessed as inhibition constant incubated for 60 mins; type: tissue-based
# Chain of 5-hydroxytryptamine receptor 7 (Rattus norvegicus, UniProt P32305) (P32305 whole entry): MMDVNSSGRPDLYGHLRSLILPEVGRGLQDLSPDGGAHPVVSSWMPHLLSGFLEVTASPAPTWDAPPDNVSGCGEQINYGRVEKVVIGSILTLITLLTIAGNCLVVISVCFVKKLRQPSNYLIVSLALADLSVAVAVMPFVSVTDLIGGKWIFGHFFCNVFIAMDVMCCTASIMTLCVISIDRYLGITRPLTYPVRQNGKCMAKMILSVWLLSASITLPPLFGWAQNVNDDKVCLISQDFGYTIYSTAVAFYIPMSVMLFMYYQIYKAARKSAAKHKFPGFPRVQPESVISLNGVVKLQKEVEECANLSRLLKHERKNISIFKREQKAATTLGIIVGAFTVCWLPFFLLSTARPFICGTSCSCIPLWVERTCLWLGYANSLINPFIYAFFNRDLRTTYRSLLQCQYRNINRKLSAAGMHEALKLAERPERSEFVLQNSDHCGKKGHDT
# [21] = target: T4, 5-hydroxytryptamine receptor 2A; experiment: Antagonist activity at rat 5-HT2A receptor; type: functional
# [22] = Ratio of drug uptake in Wistar rat cortex to cerebellum at 10 MBq measured at 30 mins; type: ADME, tissue-based; settings: in vivo, 0.5 h
# [23] = Drug uptake in Wistar rat frontal cortex assessed as non-displaceable binding potential at 10 MBq measured at 5 to 60 mins; type: ADME, tissue-based; settings: in vivo, time 5-60 min
# [24] = target: T4, 5-hydroxytryptamine receptor 2A; experiment: Binding affinity to rat frontal cortex 5-HT2A assessed as inhibition constant; type: tissue-based
# [25] = target: T4, 5-hydroxytryptamine receptor 2A; experiment: Binding affinity to rat frontal cortex 5-HT2A assessed as dissociation constant; type: tissue-based
compound,measurement,setting,value
CC(c1cnc2c(N3CCN(C)CC3)cccc2c1)S(=O)(=O)c1ccccc1[18F] (stereo unspecified),SUVmax,[1],2.5
same,SUVmax,[2],4.5
COc1cccc(S(=O)(=O)N2CCC[C@@H]2CCN2CCC(C)CC2)c1,pKi,[3],8.80
same,pKi,[4],7.74
same,pKi,[5],8.04
COc1c(OCC[18F])cccc1C(O)C1CCN(CCc2ccc(F)cc2)CC1 (racemic),Ratio,[6],3.2
same,Drug uptake,[7],1.5
CN1CCC(C(=O)c2cccc(NC(=O)c3c(F)cc(F)cc3F)n2)CC1,pKi,[8],< 6.23
same,pKi,[9],< 6.23
same,pKi,[10],8.66
same,pKi,[11],< 6.23
same,pKi,[12],< 6.23
same,pKi,[13],< 6.23
same,pKi,[14],< 6.23
same,pKi,[15],< 6.23
CN(C)CCOc1cccc2c1ccn2S(=O)(=O)c1ccc([18F])cc1,pKi,[16],8.40
COc1cccc([C@H](O)C2CCN(CCc3ccc([18F])cc3)CC2)c1OC,Drug uptake,[17],> 94%
Cc1ccc2c(c1)c(-c1ccc(F)cc1)c(C)n2C1CCN(C)CC1,pKi,[18],8.28
same,pKi,D(2) dopamine receptor,5.59
same,pKi,[19],5.57
CC1CCN(CC[C@H]2CCCN2S(=O)(=O)c2cccc(OCC[18F])c2)CC1,pKi,[20],9.12
COc1cccc(CCc2ccccc2OCC[C@@H]2C[C@@H](O)CN2C)c1,pKi,[21],9.10
COc1c(OCC[18F])cccc1[C@H](O)C1CCN(CCc2ccc(F)cc2)CC1,Ratio,[22],2.7
same,Drug uptake,[23],1.45
CC1(NC(=O)c2ccc(N)cc2)CCN(CCCOc2ccc(F)cc2)CC1,pKi,[24],9.70
same,pKd,[25],9.96
